Assay results reported in patent US8975398B2, “NAMPT inhibitors” (AbbVie Inc., priority 2012, dated 2015).

Key:
[1] = target: NAMPT (human, recombinant, C-terminally His-tagged) (Homo sapiens, UniProt P43490); experiment: Time-Resolved Fluorescence Resonance Energy Transfer (TR-FRET) Binding Assay of NAMPT; conditions: 6.8 nM NAMPT, 200 nM probe, equilibrated 3 hours, absence of substrates
How it was run: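 Recombinant C-terminally His-tagged human NAMPT (6.8 nM) incubated 3 h at room temperature with 200 nM Oregon Green 488–labelled nicotinamide-competitive probe and 1 nM Tb-anti-His antibody in HEPES pH 7.5, 2% DMSO. TR-FRET ratio Em520/Em495 normalized to controls; IC50 from four-parameter logistic fit.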

[2] = target: NAMPT (Homo sapiens, UniProt P43490); experiment: Time-Resolved Fluorescence Resonance Energy Transfer (TR-FRET) Binding Assay of NAMPT with PRPP; conditions: 2 nM NAMPT, 2 nM probe, 200 uM PRPP and 2.5 mM ATP, equilibrated 16 hours
How it was run: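 Final mix: 2 nM NAMPT, 2 nM probe, 1 nM Tb-anti-His antibody, 200 uM PRPP, 2.5 mM ATP, 2% DMSO in 1× assay buffer. Equilibrated 16 hours before TR-FRET read, allowing possible enzymatic modification of compounds.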

Chain of NAMPT (P43490 whole entry): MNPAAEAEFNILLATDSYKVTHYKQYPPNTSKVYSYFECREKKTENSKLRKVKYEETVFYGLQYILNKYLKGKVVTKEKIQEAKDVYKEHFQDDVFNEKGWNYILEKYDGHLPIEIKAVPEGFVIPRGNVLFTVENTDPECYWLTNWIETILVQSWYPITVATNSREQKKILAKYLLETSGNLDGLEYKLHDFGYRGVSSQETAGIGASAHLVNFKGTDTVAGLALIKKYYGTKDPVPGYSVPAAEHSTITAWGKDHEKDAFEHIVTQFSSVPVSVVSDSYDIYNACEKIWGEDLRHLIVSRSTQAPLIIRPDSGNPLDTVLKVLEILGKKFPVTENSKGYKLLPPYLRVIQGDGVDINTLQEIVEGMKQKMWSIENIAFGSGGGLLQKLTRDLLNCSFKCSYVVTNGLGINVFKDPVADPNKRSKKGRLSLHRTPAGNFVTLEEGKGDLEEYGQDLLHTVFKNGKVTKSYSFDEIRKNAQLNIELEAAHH
Chain of NAMPT (human, recombinant, C-terminally His-tagged) (P43490 whole entry): as above

Row | SMILES | IC50 [1] | IC50 [2]
1 | O=C(Nc1ccc(OC2CCN(C(=O)c3ccccc3F)CC2)cc1)C1CN(c2ccnnc2)C1 [Example 289, N-(4-{[1-(2-fluorobenzoyl)piperidin-4-yl]oxy}phenyl)-1-(pyridazin-4-yl)azetidine-3-carboxamide] | 41.6 nM | 32.1 nM
2 | O=C(Nc1ccc(OC2CCN(C(=O)c3cccc(F)c3)CC2)cc1)C1CN(c2ccnnc2)C1 [Example 286, N-(4-{[1-(3-fluorobenzoyl)piperidin-4-yl]oxy}phenyl)-1-(pyridazin-4-yl)azetidine-3-carboxamide] | 127 nM | 66.4 nM
3 | Cc1ncccc1N1CC(C(=O)Nc2ccc(C3CCN(C(=O)CC4CCCC4)CC3)cc2)C1 [Example 162, N-{4-[1-(cyclopentylacetyl)piperidin-4-yl]phenyl}-1-(2-methylpyridin-3-yl)azetidine-3-carboxamide] | 144 nM | 71 nM
4 | CC(=O)N1CCC(c2ccc(NC(=O)C3CN(c4cccnc4C)C3)cc2)CC1 [Example 178, N-[4-(1-acetylpiperidin-4-yl)phenyl]-1-(2-methylpyridin-3-yl)azetidine-3-carboxamide] | 247 nM | 65.2 nM
5 | O=C(Nc1ccc(OC2CCN(C(=O)Cc3ccc(F)cc3)CC2)cc1)C1CN(c2cccnn2)C1 [Example 232, N-[4-({1-[(4-fluorophenyl)acetyl]piperidin-4-yl}oxy)phenyl]-1-(pyridazin-3-yl)azetidine-3-carboxamide] | 141 nM | 0.563 nM
6 | Cc1ccncc1N1CC(C(=O)Nc2ccc(OC3CCN(C(=O)CC4CCOCC4)CC3)cc2)C1 [Example 5, 1-(4-methylpyridin-3-yl)-N-(4-{[1-(tetrahydro-2H-pyran-4-ylacetyl)piperidin-4-yl]oxy}phenyl)azetidine-3-carboxamide] | 107 nM | 10.2 nM
7 | O=C(Nc1ccc(OC2CCN(C(=O)c3ccc(F)c(F)c3)CC2)cc1)C1CN(c2cccnn2)C1 [Example 234, N-(4-{[1-(3,4-difluorobenzoyl)piperidin-4-yl]oxy}phenyl)-1-(pyridazin-3-yl)azetidine-3-carboxamide] | 185 nM | 0.73 nM
8 | O=C(Nc1ccc(C2CCN(C(=O)c3cccc(OC(F)(F)F)c3)CC2)cc1)C1CN(c2cccnn2)C1 [Example 356, 1-(pyridazin-3-yl)-N-(4-{1-[3-(trifluoromethoxy)benzoyl]piperidin-4-yl}phenyl)azetidine-3-carboxamide] | 67.7 nM | 0.878 nM
9 | CCCCC(=O)N1CCC(c2ccc(NC(=O)C3CN(c4cccnn4)C3)cc2)CC1 [Example 318, N-[4-(1-pentanoylpiperidin-4-yl)phenyl]-1-(pyridazin-3-yl)azetidine-3-carboxamide] | 37.7 nM | 0.716 nM
10 | Cc1ccc(C(=O)N2CCC(Oc3ccc(NC(=O)C4CN(c5cccnc5)C4)cc3)CC2)s1 [Example 62, N-[4-({1-[(5-methylthiophen-2-yl)carbonyl]piperidin-4-yl}oxy)phenyl]-1-(pyridin-3-yl)azetidine-3-carboxamide] | 41.6 nM | 0.666 nM
11 | O=C(Nc1ccc(OC2CCN(C(=O)Cc3cc(F)cc(F)c3)CC2)cc1)C1CN(c2cccnn2)C1 [Example 239, N-[4-({1-[(3,5-difluorophenyl)acetyl]piperidin-4-yl}oxy)phenyl]-1-(pyridazin-3-yl)azetidine-3-carboxamide] | 112 nM | 0.833 nM
12 | O=C(Nc1ccc(OC2CCN(C(=O)C3CC3)CC2)cc1)C1CN(c2cccnn2)C1 [Example 251, N-(4-{[1-(cyclopropylcarbonyl)piperidin-4-yl]oxy}phenyl)-1-(pyridazin-3-yl)azetidine-3-carboxamide] | 230 nM | 0.88 nM
13 | CCOCCC(=O)N1CCC(c2ccc(NC(=O)C3CN(c4cccnc4C)C3)cc2)CC1 [Example 175, N-{4-[1-(3-ethoxypropanoyl)piperidin-4-yl]phenyl}-1-(2-methylpyridin-3-yl)azetidine-3-carboxamide] | 664 nM | 161 nM
